Laboratory results from the NIST ThermoML archive (doi:10.1021/je201211f).
Numbers after ± are expanded uncertainties.

Experiments:
[1] = 298.15 K, 101.33 kPa, Liquid; for viscosity: Capillary tube (Ostwald / Ubbelohde) method; for mass density: Vibrating tube method
[2] = refractive index (Na D-line) (dimensionless); conditions: 298.15 K; 101.33 kPa; Liquid; Standard Abbe refractometry
[3] = refractive index (Na D-line) (dimensionless); xn = mol fraction of the nth substance listed; conditions: 298.15 K, 101 kPa, Liquid
[4] = xn = mol fraction of the nth substance listed; conditions: 101 kPa, Liquid; for mass density: Vibrating tube method; for viscosity: Capillary tube (Ostwald / Ubbelohde) method

Cc1ccccc1C [1,2-dimethylbenzene]
Conditions | mass density [kg/m3] | refractive index | viscosity [mPa·s]
[1] | 875.57 ± 0.24 | – | 0.757 ± 0.009
[2] | – | 1.5024 ± 0.0008 | –

Cc1ccccc1C [1,2-dimethylbenzene] + CC(=O)O
[3]
Conditions | refractive index
x2 = 0.0852 | 1.4965 ± 0.0007
x2 = 0.1881 | 1.4875 ± 0.0007
x2 = 0.2447 | 1.4816 ± 0.0007
x2 = 0.3206 | 1.4747 ± 0.0007
x2 = 0.3894 | 1.4672 ± 0.0007
x2 = 0.4729 | 1.4579 ± 0.0007
x2 = 0.5569 | 1.4472 ± 0.0007
x2 = 0.636 | 1.4363 ± 0.0007
x2 = 0.7151 | 1.424 ± 0.0007
x2 = 0.8031 | 1.4099 ± 0.0007
x2 = 0.8817 | 1.3951 ± 0.0007
x2 = 0.9589 | 1.379 ± 0.0007

[4]
Conditions | mass density, 293.15 K [kg/m3] | mass density, 298.15 K [kg/m3] | mass density, 303.15 K [kg/m3] | viscosity, 298.15 K [mPa·s]
x2 = 0.0479 | 882.96 ± 0.33 | 878.72 ± 0.33 | 874.46 ± 0.33 | –
x2 = 0.0852 | – | – | – | 0.7491 ± 0.0084
x2 = 0.1264 | 888.76 ± 0.33 | 884.42 ± 0.32 | 880.07 ± 0.32 | –
x2 = 0.1881 | – | – | – | 0.7412 ± 0.0083
x2 = 0.2399 | 898.21 ± 0.31 | 893.74 ± 0.31 | 889.26 ± 0.31 | –
x2 = 0.2447 | – | – | – | 0.7448 ± 0.0082
x2 = 0.2632 | 900.31 ± 0.31 | 895.82 ± 0.31 | 891.31 ± 0.31 | –
x2 = 0.3036 | 904.17 ± 0.31 | 899.62 ± 0.31 | 895.06 ± 0.3 | –
x2 = 0.3206 | – | – | – | 0.7457 ± 0.0081
x2 = 0.3894 | – | – | – | 0.7476 ± 0.0081
x2 = 0.4089 | 915.71 ± 0.3 | 911.04 ± 0.3 | 906.34 ± 0.3 | –
x2 = 0.4323 | 918.49 ± 0.3 | 913.77 ± 0.3 | 909.03 ± 0.3 | –
x2 = 0.4729 | – | – | – | 0.7532 ± 0.008
x2 = 0.479 | 924.47 ± 0.31 | 919.7 ± 0.3 | 914.91 ± 0.3 | –
x2 = 0.5609 | 935.9 ± 0.32 | 930.9 ± 0.3 | 926.08 ± 0.28 | –
x2 = 0.5694 | – | – | – | 0.7667 ± 0.008
x2 = 0.6332 | 947.71 ± 0.32 | 942.68 ± 0.3 | 937.66 ± 0.28 | –
x2 = 0.6388 | – | – | – | 0.7838 ± 0.008
x2 = 0.7151 | – | – | – | 0.8113 ± 0.0081
x2 = 0.7184 | 964.07 ± 0.33 | 958.92 ± 0.3 | 953.75 ± 0.28 | –
x2 = 0.7912 | 980.62 ± 0.34 | 975.33 ± 0.3 | 970.03 ± 0.27 | –
x2 = 0.8031 | – | – | – | 0.8592 ± 0.0083
x2 = 0.8814 | 1005.53 ± 0.37 | 1000.08 ± 0.3 | 994.74 ± 0.25 | –
x2 = 0.8817 | – | – | – | 0.9274 ± 0.0085
x2 = 0.9589 | – | – | – | 1.035 ± 0.009
x2 = 0.9652 | 1034.87 ± 0.31 | 1029.28 ± 0.31 | 1023.69 ± 0.31 | –

Cc1cccc(C)c1 [1,3-dimethylbenzene]
Conditions | mass density [kg/m3] | refractive index | viscosity [mPa·s]
[1] | 859.88 ± 0.24 | – | 0.589 ± 0.008
[2] | – | 1.4944 ± 0.0008 | –

Cc1cccc(C)c1 [1,3-dimethylbenzene] + CC(=O)O
[3]
Conditions | refractive index
x2 = 0.0962 | 1.4877 ± 0.0013
x2 = 0.1625 | 1.4829 ± 0.0013
x2 = 0.3223 | 1.4682 ± 0.0013
x2 = 0.3797 | 1.4616 ± 0.0013
x2 = 0.4773 | 1.4523 ± 0.0013
x2 = 0.557 | 1.4424 ± 0.0013
x2 = 0.6405 | 1.4319 ± 0.0013
x2 = 0.7182 | 1.421 ± 0.0012
x2 = 0.7955 | 1.4066 ± 0.0012
x2 = 0.8721 | 1.3931 ± 0.0012
x2 = 0.9649 | 1.3773 ± 0.0012

[4]
Conditions | mass density, 293.15 K [kg/m3] | mass density, 298.15 K [kg/m3] | mass density, 303.15 K [kg/m3] | viscosity, 298.15 K [mPa·s]
x2 = 0.0777 | 869.99 ± 0.33 | 865.62 ± 0.33 | 861.24 ± 0.33 | –
x2 = 0.0962 | – | – | – | 0.5885 ± 0.0076
x2 = 0.1623 | 876.98 ± 0.33 | 872.54 ± 0.32 | – | –
x2 = 0.1625 | – | – | – | 0.5929 ± 0.0076
x2 = 0.2143 | 881.73 ± 0.32 | 877.22 ± 0.32 | 872.69 ± 0.31 | –
x2 = 0.2833 | 888.6 ± 0.32 | 884 ± 0.31 | 879.39 ± 0.31 | –
x2 = 0.3223 | – | – | – | 0.6061 ± 0.0075
x2 = 0.35 | 895.97 ± 0.31 | 891.29 ± 0.31 | 886.59 ± 0.31 | –
x2 = 0.3797 | – | – | – | 0.6144 ± 0.0075
x2 = 0.3896 | 900.67 ± 0.31 | 895.94 ± 0.31 | 891.18 ± 0.3 | –
x2 = 0.4773 | – | – | – | 0.6308 ± 0.0075
x2 = 0.4801 | 912.73 ± 0.32 | 907.88 ± 0.3 | 903 ± 0.29 | –
x2 = 0.557 | – | – | – | 0.6504 ± 0.0075
x2 = 0.5621 | 925.38 ± 0.32 | 920.41 ± 0.3 | 915.43 ± 0.29 | –
x2 = 0.6204 | 935.7 ± 0.32 | 930.66 ± 0.3 | 925.59 ± 0.29 | –
x2 = 0.6405 | – | – | – | 0.6798 ± 0.0076
x2 = 0.7182 | – | – | – | 0.7206 ± 0.0077
x2 = 0.7214 | 956.29 ± 0.35 | 951.08 ± 0.3 | 945.86 ± 0.26 | –
x2 = 0.7955 | – | – | – | 0.7754 ± 0.0079
x2 = 0.8155 | 980.67 ± 0.34 | 975.31 ± 0.3 | 969.94 ± 0.27 | –
x2 = 0.8721 | – | – | – | 0.8578 ± 0.0082
x2 = 0.8758 | 999.34 ± 0.36 | 993.89 ± 0.31 | 988.44 ± 0.26 | –
x2 = 0.9649 | – | – | – | 1.023 ± 0.0089
x2 = 0.9672 | 1034.28 ± 0.31 | 1028.66 ± 0.31 | 1023.08 ± 0.31 | –

Cc1ccc(C)cc1 [1,4-dimethylbenzene]
Conditions | mass density [kg/m3] | refractive index | viscosity [mPa·s]
[1] | 856.68 ± 0.24 | – | 0.609 ± 0.008
[2] | – | 1.4929 ± 0.0008 | –

Cc1ccc(C)cc1 [1,4-dimethylbenzene] + CC(=O)O
[3]
Conditions | refractive index
x2 = 0.0863 | 1.4874 ± 0.0007
x2 = 0.173 | 1.4805 ± 0.0007
x2 = 0.2386 | 1.4748 ± 0.0007
x2 = 0.3096 | 1.4682 ± 0.0007
x2 = 0.3987 | 1.4598 ± 0.0007
x2 = 0.4897 | 1.4498 ± 0.0007
x2 = 0.5621 | 1.4414 ± 0.0007
x2 = 0.6323 | 1.4325 ± 0.0007
x2 = 0.7212 | 1.4202 ± 0.0007
x2 = 0.7965 | 1.4084 ± 0.0007
x2 = 0.8784 | 1.3939 ± 0.0007
x2 = 0.955 | 1.3791 ± 0.0007

[4]
Conditions | mass density, 293.15 K [kg/m3] | mass density, 298.15 K [kg/m3] | mass density, 303.15 K [kg/m3] | viscosity, 298.15 K [mPa·s]
x2 = 0.0415 | 864.09 ± 0.33 | 859.71 ± 0.34 | 855.31 ± 0.34 | –
x2 = 0.0863 | – | – | – | 0.6099 ± 0.0077
x2 = 0.1166 | 870.08 ± 0.33 | 865.62 ± 0.33 | 861.15 ± 0.33 | –
x2 = 0.157 | 873.55 ± 0.32 | 869.05 ± 0.32 | 864.53 ± 0.32 | –
x2 = 0.1651 | 874.28 ± 0.32 | 869.76 ± 0.32 | 865.24 ± 0.32 | –
x2 = 0.173 | – | – | – | 0.6095 ± 0.0077
x2 = 0.2386 | – | – | – | 0.6117 ± 0.0076
x2 = 0.2466 | 882 ± 0.32 | 877.4 ± 0.32 | 872.79 ± 0.32 | –
x2 = 0.2659 | 884.01 ± 0.32 | 879.38 ± 0.32 | 874.76 ± 0.31 | –
x2 = 0.3096 | – | – | – | 0.6159 ± 0.0076
x2 = 0.3246 | 890.49 ± 0.32 | 885.78 ± 0.31 | 881.08 ± 0.31 | –
x2 = 0.3987 | – | – | – | 0.625 ± 0.0075
x2 = 0.4234 | 902.44 ± 0.31 | 897.64 ± 0.31 | 892.81 ± 0.3 | –
x2 = 0.4717 | 909.04 ± 0.31 | 904.17 ± 0.31 | 899.29 ± 0.3 | –
x2 = 0.4897 | – | – | – | 0.6398 ± 0.0075
x2 = 0.5505 | 921.33 ± 0.32 | 916.35 ± 0.3 | 911.38 ± 0.29 | –
x2 = 0.5621 | – | – | – | 0.6575 ± 0.0076
x2 = 0.6323 | – | – | – | 0.68 ± 0.0076
x2 = 0.6435 | 938.19 ± 0.33 | 933.07 ± 0.3 | 927.95 ± 0.27 | –
x2 = 0.7212 | – | – | – | 0.7243 ± 0.0077
x2 = 0.7299 | 957.01 ± 0.34 | 951.78 ± 0.3 | 946.53 ± 0.27 | –
x2 = 0.7965 | – | – | – | 0.7753 ± 0.0079
x2 = 0.8099 | 977.97 ± 0.35 | 972.61 ± 0.3 | 967.24 ± 0.27 | –
x2 = 0.8784 | – | – | – | 0.8675 ± 0.0082
x2 = 0.8851 | 1001.76 ± 0.36 | 996.29 ± 0.31 | 990.81 ± 0.26 | –
x2 = 0.955 | – | – | – | 1.003 ± 0.0088
x2 = 0.9601 | 1030.99 ± 0.31 | 1025.4 ± 0.31 | 1019.76 ± 0.31 | –
